Tests used:
TNK1 [1] = molecular target: T1, TNK1 (Homo sapiens, UniProt Q13470); experiment: TNK1 NanoBRET target engagement assay (HEK293); type: cell-based; parameters: host or cells: HEK293; details: HEK293 cells, 2 hours; read-out: NanoBRET TE Assay (HEK293) IC50
T1 sequence (Q13470 1-666): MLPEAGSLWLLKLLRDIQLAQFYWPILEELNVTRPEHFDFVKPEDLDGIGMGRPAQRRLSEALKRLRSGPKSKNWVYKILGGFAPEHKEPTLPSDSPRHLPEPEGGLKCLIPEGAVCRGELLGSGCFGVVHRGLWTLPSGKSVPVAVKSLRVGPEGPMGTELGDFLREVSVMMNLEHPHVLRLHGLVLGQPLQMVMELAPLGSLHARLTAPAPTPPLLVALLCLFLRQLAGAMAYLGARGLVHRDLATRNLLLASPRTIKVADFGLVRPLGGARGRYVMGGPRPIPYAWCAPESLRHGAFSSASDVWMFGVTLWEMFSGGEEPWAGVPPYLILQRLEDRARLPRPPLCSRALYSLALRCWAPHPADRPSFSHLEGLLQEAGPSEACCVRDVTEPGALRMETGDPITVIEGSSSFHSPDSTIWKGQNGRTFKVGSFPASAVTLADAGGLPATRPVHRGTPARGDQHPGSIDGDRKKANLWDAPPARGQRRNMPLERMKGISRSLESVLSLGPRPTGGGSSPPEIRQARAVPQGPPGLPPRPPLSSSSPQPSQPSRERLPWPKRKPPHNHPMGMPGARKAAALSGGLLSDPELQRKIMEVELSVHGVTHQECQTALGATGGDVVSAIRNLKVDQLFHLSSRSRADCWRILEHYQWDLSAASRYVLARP
Source text: The NanoBRET target engagement (TE) assay (Promega, Madison, Wis.) enables the interrogation of the displacement of a tracer compound in the active site of a recombinant kinase by a test compound in the intracellular setting. The assay enables simultaneous testing of permeability, solubility, and kinase inhibition, and tests the specific interaction of test agents with a kinase of interest, here, TNK1. The assay is based on the principle of bioluminescence resonance energy transfer (BRET). In the assay, a plasmid-encoded, luciferase-tagged form of TNK1 is transfected into cells. A tracer compound is tagged with a fluorophore that fluoresces when bound to the TNK1 protein. Readout is luminescence and fluorescence. Test compounds show activity by displacing the tracer, thus disrupting BRET.
Methods: The TNK1 NanoBRET TE assays were performed according to the manufacturer's protocol. Briefly, Nanoluc-TNK1 Fusion Vector (Promega, Madison, Wis., Cat. No. NV2181) was transfected into HEK293 cells in bulk (8×10^6 cells in a T175 flask). Up to 30 hours post-transfection, cells were harvested by trypsinization, resuspended at a concentration of 2×10^5 cells/mL, and seeded in 96-well plates at 85 μL/well. A test compound and the K5 tracer were added to each well, and the cells were incubated for 2 hours. Luminescence ([…]) and fluorescence ([…]) were measured to determine a BRET ratio. IC50 values were determined from the BRET ratios using the Graphpad Prism software (GraphPad Software, San Diego, Calif.).

TNK1 [2] = molecular target: T1, TNK1; experiment: RBC HotSpot Kinase Assay; type: biochemical; parameters: purchased Reaction Biology Corp., Malvern, Pa; details: ATP 10 μM
Procedure: The RBC HotSpot Kinase assay (Reaction Biology Corp., Malvern, Pa.) was used to evaluate the ability of test compounds to modulate (e.g., inhibit) the enzymatic activity of human TNK1 (UniProt Accession No. Q13470) in the following reaction:
Reagent: Base Reaction buffer; 20 mM Hepes (pH 7.5), 10 mM MgCl2, 1 mM EGTA, 0.02% Brij35, 0.02 mg/ml BSA, 0.1 mM Na3VO4, 2 mM DTT, 1% DMSO. Required cofactors were added individually to each kinase reaction.
Compound handling: Test compounds were dissolved in 100% DMSO to specific concentration. The serial dilution was conducted by Integra Viaflo Assist in DMSO.
1. Prepared substrate (peptide substrate, poly[Glu:Tyr] (4:1), 0.2 mg/ml; ATP 10 μM) in freshly prepared Reaction Buffer;
2. Delivered any required cofactors to the substrate solution;
3. Delivered kinase (TNK1) into the substrate solution and gently mixed;
4. Delivered compounds in 100% DMSO into the kinase reaction mixture by Acoustic technology (Echo550; nanoliter range), incubated for 20 minutes at room temperature;
5. Delivered ^33P-ATP (specific activity 10 μCi/μl) into the reaction mixture to initiate the reaction;
6. Incubated for 2 hours at room temperature;
7. Detected radioactivity by filter-binding method;
8. Kinase activity data were expressed as the percent remaining kinase activity in test samples compared to vehicle (dimethyl sulfoxide) reactions. IC50 values and curve fits were obtained using Prism (GraphPad Software).

[3] = test system: pSTAT5 in L540 xenograft tumors; experiment: pSTAT5 assay in L540 xenograft tumors (ELISA); type: in vivo, mouse; details: 10 mg/kg and 25 mg/kg treated arms
Procedure: Effects of test compounds on phosphorylation of signal transducer and activator of transcription 5 (STAT5) were determined in L540 xenograft tumors.
Methods: Each treatment group included 10 NOD SCID mice. Each mouse was injected with 1×10^7 L540 cells (86% viable at the time of injection), and treated with a single dose of test compound (10 mg/kg or 25 mg/kg) 10 days post L540 cell injection. Tumors were collected 24 hours post treatment, snap frozen, and kept at −80° C. for 24 hours post-harvest. Phosphorylated STAT5 (pSTAT5) levels were measured in the lysates using the STAT5 AB pY694/699 ELISA Kit (Abcam, Cambridge, UK, ab176656). The standard Abcam ELISA protocol was followed, except for 10× more protein than what Abcam recommends was used.

Row | SMILES | IC50 (TNK1 [1]) [nM] | IC50 (TNK1 [2]) [nM] | dose dependence of p-STAT5 decrease [3]
1 | COc1cc(N2CCN(C)CC2)c(Cl)cc1Nc1ncc(Cl)c(Nc2cccnc2N2CCCC2=O)n1 [Example No. 13, 1-(3-((5-chloro-2-((5-chloro-2-methoxy-4-(4-methylpiperazin-1-yl)phenyl)amino)pyrimidin-4-yl)amino)pyridin-2-yl)pyrrolidin-2-one] | < 150 | < 5 | –
2 | CN1CCN(c2c(Cl)cc(Nc3ncc(Cl)c(Nc4cccnc4N4CCCC4=O)n3)c3ccccc23)CC1 [Example No. 18, 1-(3-((5-chloro-2-((3-chloro-4-(4-methylpiperazin-1-yl)naphthalen-1-yl)amino)pyrimidin-4-yl)amino)pyridin-2-yl)pyrrolidin-2-one] | < 150 | < 5 | –
3 | COc1cc(N2CCN(C)CC2)c(Cl)cc1Nc1ncc(Cl)c(Nc2cccnc2N2CCNC2=O)n1 [Example No. 21, 1-(3-((5-chloro-2-((5-chloro-2-methoxy-4-(4-methylpiperazin-1-yl)phenyl)amino)pyrimidin-4-yl)amino)pyridin-2-yl)imidazolidin-2-one] | < 150 | < 5 | –
4 | CN1CCN(c2ccc(Nc3ncc(Cl)c(Nc4cccnc4N4CCCC4=O)n3)cc2)CC1 [compound 1, 1-(3-((5-chloro-2-((4-(4-methylpiperazin-1-yl)phenyl)amino)pyrimidin-4-yl)amino)pyridin-2-yl)pyrrolidin-2-one] | < 150 | < 5 | –
5 | COc1cc(N2CCN(C)CC2)ccc1Nc1ncc(Cl)c(Nc2cccnc2N2CCCC2=O)n1 [compound 2, 1-(3-((5-chloro-2-((2-methoxy-4-(4-methylpiperazin-1-yl)phenyl)amino)pyrimidin-4-yl)amino)pyridin-2-yl)pyrrolidin-2-one] | < 150 | < 5 | –
6 | CCOc1cc(N2CCN(C)CC2)ccc1Nc1ncc(Cl)c(Nc2cccnc2N(C)C)n1 [compound 3, 5-chloro-N^4-(2-(dimethylamino)pyridin-3-yl)-N^2-(2-ethoxy-4-(4-methylpiperazin-1-yl)phenyl)pyrimidine-2,4-diamine] | > 1000 | 15 to 50 | –
7 | CC(C)Oc1cc(N2CCN(C)CC2)ccc1Nc1ncc(Cl)c(Nc2cccnc2N(C)C)n1 [compound 4, 5-chloro-N^4-(2-(dimethylamino)pyridin-3-yl)-N^2-(2-isopropoxy-4-(4-methylpiperazin-1-yl)phenyl)pyrimidine-2,4-diamine] | > 1000 | 15 to 50 | –
8 | CN1CCN(c2ccc(Nc3ncc(Cl)c(Nc4cccnc4N(C)C)n3)cc2)CC1 [compound 5, 5-chloro-N^4-(2-(dimethylamino)pyridin-3-yl)-N^2-(4-(4-methylpiperazin-1-yl)phenyl)pyrimidine-2,4-diamine] | 150 to 1000 | 5 to 15 | –
9 | COc1cc(N2CCN(C)CC2)c(C)cc1Nc1ncc(Cl)c(Nc2cccnc2N2CCNC2=O)n1 [compound 9, 1-(3-((5-chloro-2-((2-methoxy-5-methyl-4-(4-methylpiperazin-1-yl)phenyl)amino)pyrimidin-4-yl)amino)pyridin-2-yl)imidazolidin-2-one] | < 150 | < 5 | showed some dose dependence
10 | COc1cc(N2CCN(C)CC2)c(C)cc1Nc1ncc(Br)c(Nc2cccnc2N(C)C)n1 [compound 10, 5-bromo-N^4-(2-(dimethylamino)pyridin-3-yl)-N^2-(2-methoxy-5-methyl-4-(4-methylpiperazin-1-yl)phenyl)pyrimidine-2,4-diamine] | < 150 | < 5 | showed some dose dependence

Reference: patent US11529350B2, “Tyrosine kinase non-receptor 1 (TNK1) inhibitors and uses thereof” (Sumitomo Pharma Oncology, Inc., priority 2019, dated 2022)
